Consider 1 molecule from patent US12104173B2, “Method for differentiation of human pluripotent stem cell lines in suspension culture” (AGENCY FOR SCIENCE, TECHNOLOGY AND RESEARCH, priority 2018, dated 2024).

Molecules are shown by their SMILES.

Common to all, as to assay: CHIR dose: hematopoietic/erythroid differentiation of agitated hPSC-MC aggregates
Format in all cases: cell-based, human

In one experiment the test system is D11 O-neg hiPSC line. How it is done: (§1) Human pluripotent stem cell-microcarrier (HPSC-MC) aggregates generated from different hPSC lines were differentiated using 3 different CHIR doses (5, 10 and 15 μM for 24 hours) and were evaluated for T-bra (day 2) and KDR+PDGFRβ− (day 4) expression by flow cytometry, induction of key hematopoietic transcription factors by RT-PCR (day 4), hematopoietic precursor expansion (day 14) and erythroblast expansion (day 42).
(§2) Table 2—Hematopoietic differentiation of nine human pluripotent stem cell (hPSC) lines, from expansion in agitated microcarrier culture to erythroblast expansion—This table summarises the different stages of differentiation; hPSC expansion, mesoderm induction, hematopoietic precursor and erythroblast expansion of multiple hPSC-MC aggregate lines differentiated with optimal dose of CHIR-99021. Fold-expansion of hPSC-MC aggregates following 7 days of agitated culture, hematopoietic precursors following 14 days of culture in methylcellulose medium and erythroblast expansion following 24 days in expansion medium are reported. Flow cytometric evaluation of % T-bra+ cells on day 2 and % KDR+ cells on day 4 during mesoderm induction, % CD43+ cells during hematopoietic precursor expansion, % CD235a+ cells and fetal hemoglobin expression during erythroblast expansion stage are summarised. Total erythroid cells per hPSC seeded on day 42 was calculated as number of embryoid bodies derived on day 4 per hPSC seeded*erythroblast fold expansion*percent CD235a+ erythroblast.
(§3) Analysis of Design of experiments (DoE) outcomes and evaluation of selected conditions generated by the MODDE® software allowed the development of an optimized protocol for hematopoietic mesoderm induction of human pluripotent stem cell-microcarrier (hPSC-MC) aggregates initially expanded under continuous agitation. Approximately 2 to 4 million hPSC-MC aggregates in 3 ml of Stemline® II medium were differentiated as follows: day 1; 30 ng/ml of BMP4, 50 ng/ml VEGF165, 12 μM CHIR-99021 (Selleck Chemicals, USA), 50 ng/ml Activin A, day 2; 30 ng/ml of BMP4, 50 ng/ml VEGF165, 50 ng/ml Activin A, day 3: 30 ng/ml of BMP4, 50 ng/ml VEGF165 and 20 ng/ml bFGF. Four days post-differentiation, single cells derived by TrypLE™ Express (ThermoFisher Scientific) treatment and strained through 40 μm cell strainers (Greiner Bio-one, Germany) were used for hematopoietic precursor and erythroblast expansion and erythroblast terminal maturation as detailed herein. Hematopoietic and erythroblast differentiation were monitored by flow cytometry, quantitative real-time PCR, immunoblotting and microscopic imaging. Oxygen binding affinity of differentiated erythroblast was determined using a Hemox Analyzer (TCS Scientific Corp, USA).
(§4) HPSC-MC aggregates were dissociated into single cells by treatment with TrypLE. Express (ThermoFisher Scientific) for 5 minutes at 37° C., passed through 40 μm cell strainer (Greiner Bio-one), centrifuged at 1300 rpm for 3 minutes to pellet cells, and rinsed once with phosphate buffered saline (PBS) before re-suspension in Stemline II medium. Two hundred thousand cells in 100 μl of Stemline II medium were transferred to a 6-well ultra-low attachment plate and cultured with Blast growth medium (BGM) for 2 weeks in static conditions as detailed herein.
(§5) Hematopoietic precursors were mixed with equal volume of Stemline II medium containing 50 ng/ml of SCF (STEMCELL. Technologies) and 3 U/ml EPO (Peprotech, USA), for an additional 7 days. Subsequently, cells were diluted 10-fold with PBS and pelleted by centrifugation at 3000 rpm for 10 minutes. […]

A further experiment has as its system D12 O-neg hiPSC line. The protocol:
as §1, §2, §3, §4, §5

Another experiment concerns D9 O-neg hiPSC line. The conditions noted are these: optimal dose of CHIR-99021, day 4.
The next experiment relates to IMR90 hiPSC line. To be noted: optimal dose of CHIR-99021, day 4.
Where [1] appears, read: 15 μM CHIR dose, day 14 post differentiation.
The mark [2] stands for this setting: 15 μM CHIR for 24 hours, day 2, flow cytometry.
Where [3] appears, read: 15 μM CHIR for 24 hours, day 4, flow cytometry.
Setting [4] is: erythroblast expansion medium, up to day 42.
Setting [5] is: optimal dose of CHIR-99021, 14 days in methyl cellulose medium.
[6] abbreviates: optimal dose of CHIR-99021, 14 days in methyl cellulose medium (static).
Where [7] appears, read: optimal dose of CHIR-99021, day 2.
The mark [8] stands for this setting: optimal dose of CHIR-99021, day 4.

Regarding `Cc1c[nH]c(-c2cnc(NCCNc3ccc(C#N)cn3)nc2-c2ccc(Cl)cc2Cl)n1` [CHIR-99021, 6-[[2-[[4-(2,4-Dichlorophenyl)-5-(5-methyl-1H-imidazol-2-yl)-2-pyrimidinyl]amino]ethyl]amino]-3-pyridinecarbonitrile], the “fold-expansion of hematopoietic precursors” value with D11 O-neg hiPSC line (setting [1]) was 3.2±0.33 fold; in the experiment with D12 O-neg hiPSC line (setting [1]), 5.26±1.32 fold. The “T-Bra+ cells” value with D11 O-neg hiPSC line (setting [2]) is 33.4±4.10%; in the experiment on D12 O-neg hiPSC line (setting [2]), 10.6±2.78%. In addition, the “KDR+PDGFRβ- cells” value was 11.74±1.16% in the experiment with D11 O-neg hiPSC line (setting [3]) and 31.13±5.17% in the experiment on D12 O-neg hiPSC line (setting [3]). The erythroblast differentiation entry with D11 O-neg hiPSC line (setting [4]) and in the experiment on D12 O-neg hiPSC line (setting [4]) was “failed to differentiate into erythroid cells” each time. The “Hematopoietic precursor expansion % CD43” value with D11 O-neg hiPSC line (setting [5]) stood at 17.4%; with D12 O-neg hiPSC line (setting [5]), 22%. The entries for the “Hematopoietic precursor expansion Fold-expansion” value in the experiment on D11 O-neg hiPSC line (setting [6]) and in the experiment on D12 O-neg hiPSC line (setting [6]) were 3.2 fold and 7.9 fold, respectively. The results for the “Mesoderm induction % T-Bra” value in the experiment with D11 O-neg hiPSC line (setting [7]) and in the experiment with D12 O-neg hiPSC line (setting [7]) were 33.4% and 10.9%, respectively. Besides, the “Mesoderm induction % KDR+ PDGFRα−” value with D11 O-neg hiPSC line (setting [8]) was determined as 11.7%; in the experiment with D12 O-neg hiPSC line (setting [8]), 20.7%; in the experiment on D9 O-neg hiPSC line, 20.9%; in the experiment on IMR90 hiPSC line it was 14.2%.
